IC50 data for one compound are collected here from US7737161B2, “Condensed furan compounds” (Mitsubishi Tanabe Pharma Corporation, priority 2003, dated 2010).

The target in this experiment is T1, human FXa (Homo sapiens, UniProt P00742).
T1 construct: purchased Enzyme Research Laboratories, Inc
The experiment is described as follows: Inhibitory effect on activated blood coagulation factor X (chromogenic substrate S-2222). Format: biochemical. As to conditions: human FXa 0.05 U/ml, S-2222 0.5 mM, 37° C., pH 8.4. On the procedure:
A substrate solution was prepared by dissolving chromogenic substrate S-2222 at the concentration of 0.625 mM (final concentration 0.5 mM) in 100 mM Tris buffer (pH 8.4) containing 200 mM sodium chloride and 0.1% bovine serum albumin, and a test compound solution was prepared by dissolving a test compound in a buffer containing 10% dimethyl sulfoxide. The test compound solution (25 μl) was added to the substrate solution (200 μl). In the control group, 25 μl of the buffer containing 10% dimethyl sulfoxide was used instead of the test compound solution.
After pre-warming at 37° C. for 3 minutes, 25 μl of human FXa (Enzyme Research Laboratories, Inc.) dissolved at 0.5 U/ml in a buffer was added to the reaction mixture (final concentration of FXa: 0.05 U/ml) to initiate the reaction. During a 5-minute reaction at 37° C., the absorbance at 405 nm was monitored continuously on a 96 well microplate reader (Spectra MAX250, Molecular Devices) and the increase of absorbance was used as an index of FXa activity. In order to evaluate FXa inhibitory activity of a test compound, the 50% inhibitory concentration of the test compound for FXa activity compared to the control group (IC50 value) was calculated using analytic soft (GraphPad Prism, GraphPad Software, Inc.).

T1 sequence (P00742 235-488 limits assumed): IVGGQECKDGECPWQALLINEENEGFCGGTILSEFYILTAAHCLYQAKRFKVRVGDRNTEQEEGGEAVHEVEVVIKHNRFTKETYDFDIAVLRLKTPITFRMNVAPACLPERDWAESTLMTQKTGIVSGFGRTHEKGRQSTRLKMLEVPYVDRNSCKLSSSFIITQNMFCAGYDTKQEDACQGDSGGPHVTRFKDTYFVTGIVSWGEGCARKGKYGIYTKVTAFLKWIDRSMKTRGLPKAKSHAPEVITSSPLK
T1 sequence (P00742 41-179 partner limits assumed): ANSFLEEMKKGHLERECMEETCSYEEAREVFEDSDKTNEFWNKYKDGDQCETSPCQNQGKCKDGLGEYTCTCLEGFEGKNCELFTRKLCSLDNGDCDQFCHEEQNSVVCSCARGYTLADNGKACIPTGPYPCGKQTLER

As a reminder, the IC50 is the concentration that gives 50% inhibition. Low readings indicate greater potency in that assay, high ones weaker potency in that assay. The compound `COc1ccc2oc(C(=O)Nc3ccc(Cl)cn3)c(NC(=O)[C@H]3CC[C@H](N(C)C)CC3)c2n1` [Example 36] displayed an IC50 of 10.8 nM.
